Experimental data reported in publication PMC3038857, “Using Nuclear Receptor Activity to Stratify Hepatocarcinogens” (PLoS ONE, 2011).

Columns and labels:
[1] = target: T1, ESR1 (estrogen receptor 1) (Homo sapiens, UniProt P03372); assay: ATG_ERa_TRANS: Factorial reporter gene assay (HepG2); format: cell-based; conditions: HepG2; scale not given, looks like -log10 of molar active concentration; 0 = no activity
T1 construct: expressed in transfected cells; host or cells: HepG2
Outline: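 Seven concentrations per chemical, three-fold dilutions down from the MTC, were tested in HepG2 hepatoma cells. Those cells carried a multiple reporter transcription unit library, read either as cis transcription-factor-site reporters or as a trans mammalian one-hybrid panel for nuclear receptors.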

CYP1A2 = assay: CLZD_CYP1A2: Change in expression of CYP1A2 (primary human hepatocytes); format: cell-based; conditions: 24 hr, scale not given, looks like -log10 of molar active concentration, 0 = no activity
Outline: (§1)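 Chemicals are tested in human hepatocyte primary cultures over 0.004-40 µM (5 concentrations) for 6, 24 or 48 hr, and concentration- and time-dependent transcript changes are read by quantitative nuclease protection assay.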

CYP2B6 = assay: CLZD_CYP2B6: Change in expression of CYP2B6 (primary human hepatocytes); format: cell-based; conditions: 24 hr, scale not given, looks like -log10 of molar active concentration, 0 = no activity
Outline: as §1

CYP3A4 = assay: CLZD_CYP3A4: Change in expression of CYP3A4 (primary human hepatocytes); format: cell-based; conditions: 24 hr, scale not given, looks like -log10 of molar active concentration, 0 = no activity
Outline: as §1

HMGCS2 = assay: CLZD_HMGCS2: Change in expression of HMGCS2 (primary human hepatocytes); format: cell-based; conditions: 24 hr, scale not given, looks like -log10 of molar active concentration, 0 = no activity
Outline: as §1

ERa (ESR1) = target: T2, ERa (ESR1) (Homo sapiens, UniProt P03372); assay: NCGC_ERalpha_Agonist: GAL4 BLAM Reporter gene assay: ERa; format: cell-based; conditions: agonist mode; scale not given, looks like -log10 of molar active concentration; 0 = no activity
T2 construct: expressed in transfected cells; host or cells: HEK293
T2 sequence (P03372 whole entry, the tested form may be a part): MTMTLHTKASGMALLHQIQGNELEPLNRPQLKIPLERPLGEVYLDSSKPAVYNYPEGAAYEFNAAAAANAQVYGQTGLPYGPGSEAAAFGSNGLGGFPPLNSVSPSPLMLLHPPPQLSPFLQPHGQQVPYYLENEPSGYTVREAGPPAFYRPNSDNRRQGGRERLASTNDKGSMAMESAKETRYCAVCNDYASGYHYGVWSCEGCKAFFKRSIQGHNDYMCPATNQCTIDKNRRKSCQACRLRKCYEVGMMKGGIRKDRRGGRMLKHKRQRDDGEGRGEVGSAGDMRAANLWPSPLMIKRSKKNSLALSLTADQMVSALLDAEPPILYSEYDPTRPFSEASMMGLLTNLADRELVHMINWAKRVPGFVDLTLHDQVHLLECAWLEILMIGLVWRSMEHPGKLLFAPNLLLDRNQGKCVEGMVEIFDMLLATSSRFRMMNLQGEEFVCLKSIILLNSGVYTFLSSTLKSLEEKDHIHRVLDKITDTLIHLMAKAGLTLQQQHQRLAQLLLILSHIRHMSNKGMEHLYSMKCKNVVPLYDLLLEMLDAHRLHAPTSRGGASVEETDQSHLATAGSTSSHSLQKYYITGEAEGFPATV
Method: (§2) These assays measure binding constants and enzyme inhibition values for nuclear receptors. The targets include [drawing 67] , [drawing 68] , [drawing 69] , [drawing 70] , [drawing 71] , [drawing 72] , [drawing 73] , [drawing 74] , [drawing 75] and [drawing 76] . Each of the nuclear receptor targets was measured in agonist mode. Assays were run at the NIH Chemical Genomics Center (Rockville, MD).
(§3) Cell-based HTS Assays: These assays measuring binding constants and enzyme inhibition values for nuclear receptors. The targets include AR, ER, FXR, LXR, PPARα, PPARδ, PPARγ, RXRα, RXRβ and PXR. Each of the nuclear receptor targets was measured in both agonist and antagonist mode, but the antagonist data is still undergoing analysis due to possible interference between cytotoxicity and assay activity, so antagonist mode data were not used in the present analysis. Assays were run at the NIH Chemical Genomics Center (Rockville, MD) as part of the Tox21 collaboration. […] The R^2 was required to be ≥0.5. Values where only the highest concentration exceeded 50% activity were excluded to eliminate weak or false positives. Detailed description of the methods, data and analysis methods for this dataset will be presented in a separate publication.

LXRa (NR1H2) = assay: NCGC_LXR_Agonist: GAL4 BLAM Reporter gene assay: LXRa; format: cell-based, human; conditions: agonist mode; scale not given, looks like -log10 of molar active concentration; 0 = no activity
Method: as §2, §3

PXR Human (NR1I2) = target: T3, PXR Human (NR1I2) (Homo sapiens, UniProt O75469); assay: NCGC_PXR_Agonist_human: GAL4 BLAM Reporter gene assay: PXR Human; format: cell-based; conditions: agonist mode; scale not given, looks like -log10 of molar active concentration; 0 = no activity
T3 sequence (O75469 146-434 limits assumed): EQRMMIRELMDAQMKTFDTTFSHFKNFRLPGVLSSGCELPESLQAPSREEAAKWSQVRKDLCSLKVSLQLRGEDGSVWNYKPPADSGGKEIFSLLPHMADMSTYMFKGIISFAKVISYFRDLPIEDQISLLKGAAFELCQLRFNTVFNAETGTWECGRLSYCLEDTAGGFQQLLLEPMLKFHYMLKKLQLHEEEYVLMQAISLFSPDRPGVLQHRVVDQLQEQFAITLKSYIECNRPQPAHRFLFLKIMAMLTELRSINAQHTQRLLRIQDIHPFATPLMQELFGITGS
Outline: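 Tox21 cell-based screens at NCGC using GAL4-fused receptor beta-lactamase reporters. Responses active only at the top concentration (above 50%) were discarded, and fits needed R^2 of at least 0.5.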

Rat Liver [2] = conditions: rat chronic study, liver, any lesion; coded 6 / 0, code not explained here; ref ToxRefDB; cited from earlier work
Rat Liver [3] = conditions: rat chronic study, liver, preneoplastic lesion; coded 6 / 0, code not explained here; ref ToxRefDB; cited from earlier work
Rat Liver [4] = conditions: rat chronic study, liver, neoplastic lesion; coded 6 / 0, code not explained here; ref ToxRefDB; cited from earlier work

T1 sequence (P03372 whole entry): as the sequence (P03372 whole entry, the tested form may be a part) above

Compound	ATG_ERa_TRANS [1]	CLZD_CYP1A2_24 (CYP1A2)	CLZD_CYP2B6_24 (CYP2B6)	CLZD_CYP3A4_24 (CYP3A4)	CLZD_HMGCS2_24 (HMGCS2)	NCGC_ERalpha_Agonist (ERa (ESR1))	NCGC_LXR_Agonist (LXRa (NR1H2))	NCGC_PXR_Agonist_human (PXR Human (NR1I2))	CHR_Rat_Liver_1_AnyLesion (Rat Liver [2])	CHR_Rat_Liver_2_PreneoplasticLesion (Rat Liver [3])	CHR_Rat_Liver_3_NeoplasticLesion (Rat Liver [4])
CC(C)N1C(=O)c2ccccc2NS1(=O)=O [r37]	0	0	0	0	0	0	0	0	0	0	0
CCCCOCN(C(=O)CCl)c1c(CC)cccc1CC [r46]	0	0	5.29	0	0	0	0	5.71	6	0	0
Nc1cnn(-c2ccccc2)c(=O)c1Cl [r56]	0	4.955	0	0	0	0	0	0	0	0	0
CC(C)(c1ccc(O)cc1)c1ccc(O)cc1 [r40]	5.959	0	0	0	0	5.764	0	4.688	0	0	0
Cc1c(COC(=O)C2C(/C=C(\Cl)C(F)(F)F)C2(C)C)cccc1-c1ccccc1 (stereo not shown) [r39]	4.432	0	5.042	4.923	0	0	0	4.546	0	0	0
CCC(C)n1c(=O)[nH]c(C)c(Br)c1=O (stereo not shown) [r43]	0	4.966	4.936	5.055	0	0	0	0	0	0	0
COc1nc(C)nc(NC(=O)NS(=O)(=O)c2ccccc2Cl)n1 [r62]	0	0	0	0	0	0	0	0	6	0	0
CCOC(=O)C(Cl)Cc1cc(-n2nc(C)n(C(F)F)c2=O)c(F)cc1Cl (stereo not shown) [r54]	0	0	5.057	4.919	0	0	0	0	6	0	0
COc1ccc(-c2ccccc2)cc1NNC(=O)OC(C)C [r38]	0	5.768	5.354	0	0	0	0	0	0	0	0
N#Cc1cc(Br)c(O)c(Br)c1 [r44]	4.432	0	0	0	0	0	0	0	6	0	0
COc1nc(C)nc(NC(=O)NS(=O)(=O)c2ccccc2Cl)n1 [r63]	0	0	0	0	0	0	0	0	6	0	0
CC1=C(C(=O)Nc2ccccc2)SCCO1 [r53]	0	4.782	4.923	5.078	0	0	0	0	0	0	0
CC(C)OC(=O)Nc1cccc(Cl)c1 [r59]	0	5.159	4.931	4.864	0	0	0	0	6	6	0
CCSC(=O)N(CC(C)C)CC(C)C [r49]	0	0	6.583	0	0	0	0	0	6	0	0
CC(C)N1C(=O)N(c2ccccc2)CS/C1=N\C(C)(C)C [r45]	0	0	5.247	4.966	0	0	0	4.937	6	6	0
O=C1C2CC=CCC2C(=O)N1SC(Cl)(Cl)Cl (stereo not shown) [r51]	0	0	0	0	0	0	0	0			
O=C(Nc1ccccc1-c1ccc(Cl)cc1)c1cccnc1Cl [r42]	4.569	4.876	5.164	4.98	0	0	0	0	6	6	0
